Results reported in patent US10563272B2, “Compositions comprising Metarhizium fungi and use thereof as a pesticide” (Cotton Research and Development Corporation, priority 2015, dated 2020).

Key:
predatory lacewings [1] = experiment: Bollgard II cotton, Auscott-Togo 2012-13, Field 77 (Experiment 1): predatory lacewings; format: in vivo, Chrysopa spp., Micromus tasmaniae; settings: 62.5 mL/ha
Description: (§1) Two separate trials (Experiment 1 in Field 77; Experiment 2 in Field 63) were conducted in Bollgard II cotton crops on a commercial cotton farm at Auscott-Togo near Narrabri, New South Wales from 11 Feb. to 5 Mar. 2013 (Field 77) and 19 Feb. to 6 Mar. 2013 (Field 63). The cotton used for each of the trials was at the late squaring to pod setting and maturation stages which was fairly attractive to green mirids.
(§2) In both trials, the efficacy of the following treatments against green mirids and predatory insects was evaluated: • 1. 250 mL/ha DAT 511 spore in oil (1×10^7 spores/ml); • 2. 500 mL/ha DAT 511 spore in oil (1×10^7 spores/ml); • 3. 1 L/ha DAT 511 spore in oil (1×10^7 spores/ml); • 4. 62.5 mL/ha of fipronil; and • 5. Unsprayed (negative control).
(§3) The treatment plots were arranged in a randomized complete block design with six replicates per treatment. Each replicated plot measured 40 m wide (40 rows) and 90 m long.
(§4) Foliar application of each treatment was made on 28 Feb. (for both green mirids and beneficial insects) and 13 Mar. 2012 (for beneficial insects alone) using a ground spray rig fitted with flat fan nozzles to achieve a droplet size of 200 μm. The treatment was applied during the mornings when temperatures were between 20° C. and 28° C. The timing of treatment was based on the IPM Guidelines and recommendations by CottonLogic to use an economic threshold of 0.5 green mirids per metre (Deutscher and Wilson 1999; Khan et al. 2004).
(§5) Pre-treatment counts of green mirid adults and nymphs, predatory beetles, predatory bugs, predatory lacewings and spiders were made by visual inspection of whole cotton plants. Both adults and nymphs of beneficial insects were counted. Plants were assessed in randomly selected one-metre lengths of row of each replicate (i.e. 6 m per treatment). Post-treatment counts were made 3, 7, 14 and 21 days after treatment. Data are expressed as numbers of green mirid adults and nymphs counted per metre for each treatment.

spiders = experiment: Bollgard II cotton, Auscott-Togo 2012-13, Field 63 (Experiment 2): spiders; format: in vivo, Lycosa spp., Oxyopes spp., Salticidae spp., Araneus spp.; settings: 62.5 mL/ha
Description: as §1, §2, §3, §4, §5

predatory beetles = experiment: Rate trial on conventional cotton refuge crops, Undabri 2012 (Example 12): predatory beetles; format: in vivo, Coleoptera (Coccinellidae, Melyridae); settings: DAT 511 250 mL/ha, 500 mL/ha and 1.0 L/ha; fipronil 62.5 mL/ha
Description: (§6) This trial was conducted using commercial conventional cotton refuge crops at Undabri in Goondiwindi (28° 55'S, 150° 31′E) from 14 Feb. to 6 Mar. 2012.
as §2, with “The” for “In both trials, the”, “mirids, green vegetable bugs” for “mirids”, “assessed:” for “evaluated:”, “mL/ha” for “mL/ha of”
(§7) The plots were arranged in a randomized complete block design with three replicates per treatment. Each replicated plot measured 8 m (8 rows) wide and 250 m long.
(§8) Foliar applications of each treatment were made on 14 Feb. 2012 using a ground spray rig fitted with flat fan nozzles to achieve a droplet size of 200 μm. All insecticide formulations were water miscible. All treatments were applied using a spray volume of 100 L/ha. The untreated (negative control) plot was left unsprayed and the plot treated with synthetic insecticide received two applications similar to, and on the same date as, the plots treated with the fungus.
(§9) For each replicate, visual counts of adults and nymphs of green mirids, green vegetable bugs (GVB), apple dimpling bugs and predatory insects on whole cotton plants were made in a randomly selected 1 m length of row of cotton plants (i.e. 6 m per treatment). […]

predatory bugs [2] = experiment: Bollgard II cotton, Auscott-Togo 2012-13, Field 77 (Experiment 1): predatory bugs; format: in vivo, Hemiptera (Nabidae, Lygaeidae, Pentatomidae); settings: 62.5 mL/ha
Description: as §1, §2, §3, §4, §5

predatory bugs [3] = experiment: Bollgard II cotton, Auscott-Togo 2012-13, Field 63 (Experiment 2): predatory bugs; format: in vivo, Hemiptera (Nabidae, Lygaeidae, Pentatomidae); settings: 62.5 mL/ha
Description: as §1, §2, §3, §4, §5

predatory lacewings [4] = experiment: Rate trial on conventional cotton refuge crops, Undabri 2012 (Example 12): predatory lacewings; format: in vivo, Chrysopa spp., Micromus tasmaniae; settings: DAT 511 250 mL/ha, 500 mL/ha and 1.0 L/ha; fipronil 62.5 mL/ha
Description: as §6
as §2, with “The” for “In both trials, the”, “mirids, green vegetable bugs” for “mirids”, “assessed:” for “evaluated:”, “mL/ha” for “mL/ha of”
as §7, §8, §9

[5] = test system: green mirid adults and nymphs; experiment: Bollgard II cotton, Auscott-Togo 2012-13, Field 63 (Experiment 2): green mirids; format: in vivo, Creontiades dilutus; settings: 62.5 mL/ha
Description: as §1, §2, §3, §4, §5

For N#Cc1nn(-c2c(Cl)cc(C(F)(F)F)cc2Cl)c(N)c1[S+]([O-])C(F)(F)F (stereo not drawn) [fipronil], the “No. predatory lacewings per meter” value (predatory lacewings [1]; 3 DAT) was 0.00 ± 0.00 a per meter, the “No. predatory lacewings per meter” value (predatory lacewings [1]; 7 DAT) was 0.00 ± 0.00 a per meter and the “No. predatory lacewings per meter” value (predatory lacewings [1]; 14 DAT) was 0.33 ± 0.33 a per meter. The “No. predatory lacewings per meter” value (predatory lacewings [1]; 21 DAT) was 0.33 ± 0.33 a per meter, the “No. predatory lacewings per meter” value (predatory lacewings [1]; pre-spray counts) was 0.00 ± 0.00 a per meter and the “No. spiders per meter” value (spiders; 3 DAT) was 7.33 ± 1.45 a per meter. For the same compound, the “No. spiders per meter” value (spiders; 7 DAT) was 4.33 ± 0.67a per meter, the “No. spiders per meter” value (spiders; 14 DAT) was 1.33 ± 0.33a per meter and the “No. spiders per meter” value (spiders; 21 DAT) was 3.67 ± 0.33 a per meter. The “No. spiders per meter” value (spiders; pre-spray counts) was 11.67 ± 1.61 a per meter, the “effect on number of predatory beetles per metre” value (predatory beetles) was “identical” and the “number of predatory bugs per meter” value (predatory bugs [2]; 3 DAT) was 0.33 ± 0.00 a per meter. The “number of predatory bugs per meter” value (predatory bugs [2]; 7 DAT) was 0.00 ± 0.00 a per meter, the “number of predatory bugs per meter” value (predatory bugs [2]; 14 DAT) was 0.00 ± 0.00 a per meter and the “number of predatory bugs per meter” value (predatory bugs [2]; 21 DAT) was 0.67 ± 0.33 a per meter. For the same compound, the “number of predatory bugs per meter” value (predatory bugs [2]; pre-spray counts) was 0.33 ± 0.33 a per meter, the “No. predatory bugs per meter” value (predatory bugs [3]; 3 DAT) was 0.00 ± 0.00 a per meter and the “No. predatory bugs per meter” value (predatory bugs [3]; 7 DAT) was 0.33 ± 0.33 a per meter. The “No. predatory bugs per meter” value (predatory bugs [3]; 14 DAT) was 0.00 ± 0.00 a per meter, the “No. predatory bugs per meter” value (predatory bugs [3]; 21 DAT) was 0.00 ± 0.00 a per meter and the “No. predatory bugs per meter” value (predatory bugs [3]; pre-spray counts) was 0.00 ± 0.00 a per meter. The “effect on number of predatory lacewings per metre” value (predatory lacewings [4]) was “significantly lower”, the “No. green mirid adults and nymphs per meter” value ([5]; 3 DAT) was 0.33 ± 0.33 a per meter and the “No. green mirid adults and nymphs per meter” value ([5]; 7 DAT) was 0.00 ± 0.00 a per meter. The “No. green mirid adults and nymphs per meter” value ([5]; 14 DAT) was 0.33 ± 0.33 a per meter, the “No. green mirid adults and nymphs per meter” value ([5]; 21 DAT) was 0.00 ± 0.00 a per meter and the “No. green mirid adults and nymphs per meter” value ([5]; pre-spray counts) was 1.67 ± 0.33 a per meter.
